According to ChEMBL document CHEMBL1128828, “Convergent approach to water soluble camptothecin derivatives” (1995):

Tests used:
Assay type in all cases: functional
Settings in all cases: route intravenous
[1] = system: Mus musculus; experiment: Inhibitory effect on the growth of Colon 26 tumor cell line transplanted subcutaneously into mice at dose of 2 mg/kg/day x 5 administered intravenously
[2] = system: Mus musculus; experiment: Inhibitory effect on the growth of Colon 26 tumor cell line transplanted subcutaneously into mice at dose of 4 mg/kg/day x 5 administered intravenously
[3] = system: Mus musculus; experiment: Inhibitory effect on the growth of P388/CPT tumor cell line transplanted subcutaneously into mice at dose of 2 mg/kg/day x 5 administered intravenously
[4] = system: Mus musculus; experiment: Inhibitory effect on the growth of P388/CPT tumor cell line transplanted subcutaneously into mice at dose of 4 mg/kg/day x 5 administered intravenously

SMILES	T/C [1] [%]	T/C [2] [%]	T/C [3] [%]	T/C [4] [%]
CC[C@@]1(O)C(=O)OCc2c1cc1n(c2=O)Cc2cc3c(CN(C)C)c(O)ccc3nc2-1 [TOPOTECAN]	60	51	59	46
CCC1(O)C(=O)OCc2c1cc1n(c2=O)Cc2c-1nc1cc3c(cc1c2CCN)OCO3.O=C(O)C(F)(F)F (stereo not drawn)	55	49	65	36
